Series [1] in a line: Dissolution of API freebase in aqueous CapAcid / Captisol solutions at defined API:CapAcid ratios, visual inspection and NaOH titration. To be noted: for concentration (FB equivalents) at which the freebase dissolved: water.
Series [2] in a line: pH of API formulations (pH meter). The note with it: for final pH: after 2M NaOH. In kind it is physicochemical.
For series [3] the following is noted: in water, cited from earlier work; for Reported Freebase Solubility: vendor or literature value.
Series [4] in a line: API-CapAcid salts prepared in ethanol, then 70 mg of solid added to 1 mL water (visual). The format is physicochemical. To be noted: for pH of the ethanol solution prior to titration: API FB 100 mg + CapAcid 1 molar equivalent (H^+) in 10 mL 200 proof ethanol; for dissolution of 70 mg of the ethanol-prepared API-CapAcid solid in 1 mL water: visual, vortexed.
Procedure: The resulting solid API-CapAcid salts were then obtained as solids by evaporation of the ethanol, followed by lyophilization.
In a scintillation vial, a solution of API FB (100 mg) and CapAcid (1 molar equivalent, moisture corrected) was prepared by dissolving Cap Acid in 200 proof ethanol (5 mL) and then adding the freebase API. […] Whether or not the freebase dissolved after the second addition of ethanol, the initial pH, prior to titration, was recorded. The vial was then wrapped in foil and left uncovered in the hood to allow the ethanol to evaporate. After the ethanol fully evaporated, a small amount of HPLC grade water (3-5 mL) was added to each to see if the product would dissolve or become a suspension in the water. The solution was then lyophilized to remove the water. The product was ground with a stir rod and 70±0.1 mg was added to 1 mL of water to see if it would dissolve.
A short description of series [5]: Osmolality of API formulations (micro osmometer, triplicate). In kind it is physicochemical. On the procedure:
Osmolality readings were obtained on an Advanced Instruments Advanced™ Micro Osmometer Model 3300 (Advanced Instruments, Inc. Norwood, MA, USA). Saline solutions (0.9% and 3%) were run as positive controls. Each sample was calculated as the mean from back-to-back triplicate measurements. When replicate batches were measured, data was reported as mean±SEM.
The procedure was performed on a 2 mL scale. […] Benzethonium chloride (20 μL of a 1% solution, 0.01% final concentration) was added via micropipette. The pH was adjusted to ˜7.00 with 2M sodium hydroxide, or either 1M or 2M HCl in some cases, and then the mixture was transferred to a 2 mL volumetric flask to be diluted with HPLC grade water. […]
Method 1: In a 5 mL borosilicate glass test tube which contained a Teflon-coated magnetic stir bar, Captisol®-Na+ ([…], H+ equivalents, moisture corrected) was dissolved in HPLC grade water (1.6-1.7 mL), API salt (HCl in most cases) (70 mg/mL FB equivalents) was added and the mixture was stirred until a homogenous transparent solution formed. Benzethonium chloride (20 μL of a 1% solution, giving a 0.01% final concentration) was added via micropipette. The pH was adjusted to ˜7.00 with 1M or 2M sodium hydroxide, or either 1M or 2M HCl in some cases, and then the mixture was transferred to a 2 mL volumetric flask to be diluted with HPLC grade water. […]
Benzethonium chloride (20 μL of a 1% solution, giving a 0.01% final concentration) was added via micropipette. The pH was adjusted to ˜7.00 with 1M or 2M sodium hydroxide, or either 1M or 2M HCl in some cases, and then the mixture transferred to a 2 mL volumetric flask to be diluted with HPLC grade water. […]
The solution was transferred to a 2 mL volumetric flask and diluted to the target volume with HPLC grade water. […]

Series [6] can be described thus: Visual dissolution / precipitation of API free base-CapAcid formulations at stated API:CapAcid ratios. In kind it is physicochemical.
[7] abbreviates: 1:1 ratio of API to CapAcid (relative to the cyclodextrin).
Where [8] appears, read: API FB CapAcid formulation, 70 mg/mL API FB, 1.1 equivalents CapAcid (H^+ equivalents), after titration.
Setting [9] is: API Salt (70 mg/mL API Salt in FB equivalent) in water.
[10] abbreviates: API salt Captisol®-Na^+ formulation, 70 mg/mL FB equivalent, 1.1 equivalents Captisol®-Na^+.
The mark [11] stands for this setting: CapAcid-API Freebase Formulation (70 mg/mL API FB, 1.1 molar equivalent CapAcid), after pH titration with NaOH or HCl.
[12] abbreviates: Captisol®-Na^+ formulation, 70 mg/mL API Salt in FB equivalent, 1.1 molar equivalent Captisol®-Na^+.
Where [13] appears, read: 70 mg/mL API FB, 1.1 equivalents CapAcid, before NaOH/HCl.
The mark [14] stands for this setting: 70 mg/mL API salt (FB equivalent), 1.1 equivalents Captisol®-Na^+, before NaOH.
The mark [15] stands for this setting: CapAcid-API Freebase Formulation (70 mg/mL API FB, 1.1 molar equivalent CapAcid), final pH after titration and dilution.
Setting [16] is: Captisol®-Na^+ formulation, 70 mg/mL API Salt in FB equivalent, 1.1 molar equivalent Captisol®-Na^+, final pH.
Setting [17] is: API salt 70 mg/mL (FB equivalents) in water.

Marks after values point to notes of the source that are not given here. Some results are limits rather than exact numbers.

Turning to `COc1c(OCCCN2CCOCC2)ccc2c1N=C(NC(=O)c1cnc(N)nc1)N1CCN=C21` [Copanlisib], the “concentration (FB equivalents) at which the freebase dissolved” value in series [1] (setting [7]) was determined as 33300 µg/mL. Moreover, in series [1] (2:1 ratio of API to CapAcid, 100 mg FB in 30 mL water (3 mg/mL)), the “dissolution by visual inspection” value is “clear with a small amount of undissolved oil”. Further, the “pH at which precipitation occurred on titration with NaOH” value in series [1] (2:1 ratio of API to CapAcid, target 3 mg/mL) amounted to 2.20. In series [2] (1:1 ratio of API to CapAcid), the “pH of the solution before titration” value is on record as 0.76 and the “final pH” value is recorded as 6.13. For the same molecule, the “pH of the solution before titration” value in series [2] (2:1 ratio of API to CapAcid) is reported as 2.10. In addition, in series [3], the “Reported Freebase Solubility” value is recorded as “Insoluble^19” and the “Reported Salt Solubility” value is 0.023 mg/mL^18. For the same molecule, in series [4], the “pH of the ethanol solution prior to titration” value is given as 0.66 and the “dissolution of 70 mg of the ethanol-prepared API-CapAcid solid in 1 mL water” value (shortened to “dissolution of 70 mg … in 1 mL water”) is on record as “became cloudy with a brown precipitate at the bottom”.

In the case of `NC1C2CC3CC(C2)CC1C3` (stereo not shown) [2-Amantadine], the Osmolality in series [5] (setting [8]) is given as 435.7 mOsmol/kg; in series [5] (setting [9]), 826.7 mOsm/kg; in series [5] (setting [10]), 1,492.7 mOsmol/kg; in series [5] (setting [11]), 435.7 mOsm/kg; in series [5] (setting [12]) it was 1492.7 mOsm/kg. Also, the “pH of the solution prior to titration” value in series [2] (setting [13]) was found to be 1.29; in series [2] (setting [14]), 5.63. Besides, the pH was 6.94 in series [2] (setting [9]), 7.06 in series [2] (setting [15]) and 7.01 in series [2] (setting [16]).

For `NC12CC3CC(CC(C3)C1)C2` [1-Amantadine], the Osmolality in series [5] (setting [8]) was 411.6 mOsmol/kg; in series [5] (setting [9]), 832 mOsm/kg; in series [5] (setting [10]), 1,446.7 mOsmol/kg; in series [5] (setting [11]), 411.6 mOsm/kg; in series [5] (setting [12]), 1,446.7 mOsm/kg. In addition, the “pH of the solution prior to titration” value in series [2] (setting [13]) stood at 1.43; in series [2] (setting [14]), 3.93. The pH in series [2] (setting [9]) worked out at 5.67; in series [2] (setting [15]), 6.97; in series [2] (setting [16]), 6.99.

On to `Nc1ccncc1N` [Amifampridine, Pyridine-3,4-diamine], for which the Osmolality is 740.3 mOsmol/kg in series [5] (70 mg/mL API FB and 1 equivalent of 6M HCl in water); 1023.3 mOsmol/kg in series [5] (70 mg/mL API FB, 1 equivalent of 6M HCl, 1.1 equivalents Captisol®-Na^+); 740.3*^ mOsm/kg in series [5] (*70 mg/mL API FB + molar equivalent of 6M HCl in water); 532.7 mOsmol/kg in series [5] (setting [8]); 532.7** mOsm/kg in series [5] (setting [11]); 1,023.3* mOsm/kg in series [5] (Captisol®-Na^+ formulation, *70 mg/mL API FB + 6M HCl, 1.1 molar equivalent Captisol®-Na^+). Also, the “pH of the solution prior to titration” value is reported as 9.27 in series [2] (70 mg/mL API FB, 1 equivalent 6M HCl, 1.1 equivalents Captisol®-Na^+, before NaOH/HCl) and 9.19 in series [2] (setting [13]). Further, the “Reported Freebase Solubility” value in series [3] is 7000 µg/mL.

Regarding `COC(=O)[C@@H](N)Cc1ccc(O)c(O)c1` [Melevodopa], the Osmolality amounted to 605.7 mOsmol/kg in series [5] (setting [8]) and 605.7 mOsm/kg in series [5] (setting [11]). In addition, in series [2] (setting [13]), the “pH of the solution prior to titration” value is recorded as 1.22. Also, the pH in series [2] (setting [15]) is reported as 6.97.

`COc1ccc2c(c1)[C@]13CCCC[C@@H]1[C@H](C2)N(C)CC3` [DXM]: in series [1] (70 mg/mL formulations), the “solubility as stoichiometric (6.5:1) CapAcid salt compared with known API salts, in words” value is “dramatic improvement in solubility”.

`CCC(CC)COC(=O)[C@H](C)N[P@](=O)(OC[C@H]1O[C@@](C#N)(c2ccc3c(N)ncnn23)[C@H](O)[C@@H]1O)Oc1ccccc1` [Remdesivir]: in series [3], the “Reported Freebase Solubility” value is reported as “Insoluble^15”.

As to `COc1ccccc1OCCNCC(O)COc1cccc2[nH]c3ccccc3c12` (stereo not shown) [Carvedilol], in series [4], the “pH of the ethanol solution prior to titration” value was determined as 0.82 and the “dissolution of 70 mg … in 1 mL water” value was “insoluble solution”. Moreover, the “dissolution of 70 mg … in 1 mL water” value in series [4] (Method 2 solid) is recorded as “insoluble solution”.

For `CC[C@H](C)C[C@H](C)CCCCCCCCC(=O)N[C@H]1C[C@@H](O)[C@@H](NCCN)NC(=O)[C@@H]2[C@@H](O)CCN2C(=O)[C@H]([C@H](O)CCN)NC(=O)[C@H]([C@H](O)[C@@H](O)c2ccc(O)cc2)NC(=O)[C@@H]2C[C@@H](O)CN2C(=O)[C@H]([C@@H](C)O)NC1=O` [Caspofungin], the Osmolality is recorded as 59 mOsmol/kg in series [5] (setting [8]); 94 mOsm/kg in series [5] (setting [9]); 94 mOsmol/kg in series [5] (setting [17]); 209.3 mOsmol/kg in series [5] (setting [10]); 59** mOsm/kg in series [5] (setting [11]); 209.3 mOsm/kg in series [5] (setting [12]). Also, the entries for the “pH of the solution prior to titration” value in series [2] (setting [13]) and in series [2] (setting [14]) were 7.78 and 6.13, respectively. The pH in series [2] (setting [9]) worked out at 5.86; in series [2] (setting [16]), 7.04.

Take `C=CCN1CC[C@]23c4c5ccc(O)c4O[C@H]2C(=O)CC[C@@]3(O)[C@H]1C5` [Naloxone]: the “pH past which the freebase crashed out” value in series [1] (70 mg/mL FB, 1.1 equivalents CapAcid) is listed as > 6.00. Further, the Osmolality is on record as 279 mOsm/kg in series [5] (setting [9]); 279 mOsmol/kg in series [5] (setting [17]); 531.7 mOsmol/kg in series [5] (setting [10]); 139.7 mOsm/kg in series [5] (setting [11]); 531.7 mOsm/kg in series [5] (setting [12]). The pH in series [2] (setting [9]) is recorded as 4.39; in series [2] (setting [15]) it was 6.01; in series [2] (setting [16]), 5.98. The “Reported Freebase Solubility” value in series [3] was 1415 µg/mL. Moreover, the “Reported Salt Solubility” value in series [3] is listed as 50 mg/mL^13.

With `Cc1ncc2n1-c1ccc(Cl)cc1C(c1ccccc1F)=NC2` [Midazolam], in series [1] (3:1 ratio of API to CapAcid (relative to the cyclodextrin), 300.8 mg FB in 10 mL water), the “highest achievable pH without precipitation of freebase solids” value was 3.15. Besides, the “dissolution by visual inspection” value is “transparent colorless solution” in series [1] (3:1 ratio of API to CapAcid (relative to the cyclodextrin), 10 mL water) and “cloudy suggesting incomplete dissolution” in series [1] (CapAcid 1 molar equivalent relative to H^+, 300.8 mg FB in 10 mL water, 30 minutes). Also, the “final pH of the solution” value in series [2] (3:1 ratio, after 0.5 M HCl redissolved the solid) is 2.86. Also, the “pH when solids began to crash out” value in series [2] (3:1 ratio, after 360 μL total 2M NaOH) is given as 2.92.

For `CN1CCC[C@@H]1Cc1c[nH]c2ccc(CCS(=O)(=O)c3ccccc3)cc12` [eletriptan], the “concentration (FB equivalents) at which the freebase dissolved” value in series [1] (setting [7]) is 33300 µg/mL; in series [1] (2:1 ratio of API to CapAcid (relative to the cyclodextrin)) it was ~8300 µg/mL. For the same molecule, in series [1] (4:1 ratio of API to CapAcid, 100 mg FB in 30 mL water, stirring for 2 days), the “dissolution by visual inspection” value is “most of the FB dissolved and the solution was cloudy”. The “pH of the solution before titration” value in series [2] (1:1 ratio of API to CapAcid) turned out to be 0.48; in series [2] (2:1 ratio of API to CapAcid), 1.42; in series [2] (4:1 ratio of API to CapAcid), 2.34. Further, the “final pH” value was determined as 6.06 in series [2] (1:1 ratio of API to CapAcid), 6.08 in series [2] (2:1 ratio of API to CapAcid) and 6.01 in series [2] (4:1 ratio of API to CapAcid). Besides, in series [3], the “Reported Salt Solubility” value is <1 mg/mL^16. The “pH of the ethanol solution prior to titration” value in series [4] stood at 8.02. Further, in series [4], the “dissolution of 70 mg … in 1 mL water” value was “became cloudy but a large amount of oil remained at the bottom”. Also, in series [6] (2:1 ratio to captisol compared to 4:1 ratio), the “solubility compared to higher API:captisol ratio” value is recorded as “superior solubility”. The “appearance at higher API:captisol ratio” value in series [6] (4:1 ratio to captisol) is “precipitation”.

(Values after patent US20250345458A1, “COMPLEXING AGENT SALT FORMULATIONS OF PHARMACEUTICAL COMPOUNDS AT LOW STOICHIOMETRIC RATIOS” (Bexson Biomedical, Inc., priority 2022, published 2025).)
